Assay results taken from patent US4575560A, “Insecticidal diaminoguanidine hydrazone compounds” (American Cyanamid Company, priority 1985, dated 1986).
Structures can show the parent of a compound that is named as a salt.

Tests used:
[1] = test system: Tobacco Budworm 3rd Instar; test: Tobacco budworm secondary test, third-instar larvae on treated cotton cotyledons; format: in vivo, Heliothis virescens (Fabricus)
[2] = test system: Tobacco Budworm 1st Instar; test: Tobacco budworm initial test, treated eggs / newly hatched (1st instar) larvae on treated cotton leaves; format: in vivo, Heliothis virescens (Fabricus)
Description: (§1) Test formulations and procedures used for evaluation are as follows:
(§2) A. 100 mg of the test material is weighed, placed in a funnel over a 113 g narrow-mouth bottle, rinsed into the bottle with a 35 mL scoop of acetone, followed by a 35 mL scoop of water and another 35 mL scoop of acetone to yield 1000 ppm in 65% acetone. If the material is not soluble, it is broken up with a glass rod and used as a suspension.
(§3) B. This stock solution ("A") is used to make 300 ppm solutions or suspensions by pipetting 30 mL of "A" into a bottle containing 70 mL of 50% acetone to yield 300 ppm. Further dilutions in 50% acetone are made as required.
(§4) C. Tests requiring 10 ppm acetone solutions: 1 mL of "A" is pipetted into 99 mL of acetone to yield 10 ppm. Additional dilutions are made using 50% acetone as required.
Tobacco Budworm--Heliothis virescens (Fabricus)
A cotton plant with two true leaves expanded is dipped for three seconds with agitation in 300 ppm solution. A 1.27 to 1.91 cm square of cheesecloth with about 50 to 100 budworm eggs 0-24 hours old is also dipped in the test solution and placed on a leaf of the cotton plant, all being placed in the hood to dry. The leaf with the treated budworm eggs is removed from the plant and placed in a 226 g Dixie cup with a wet 5 cm piece of dental wick and covered with a lid. The other leaf is placed in a similar cup with a wick and a piece of cheesecloth infested with 50-100 newly hatched larvae is added before covering the cup with a lid. After three days at 80° F., 50% relative humidity, observations of egg hatch are made, as well as kill of newly hatched larvae, any inhibition of feeding, or interference of any sort with normal development.

Southern Armyworm = test: Southern armyworm test, third-instar larvae on treated Sieva lima bean leaves; format: in vivo, Spodoptera eridania (Cramer); conditions: third-instar larvae
Description: as §1, §2, §3, §4
Southern Armyworm--Spodoptera eridania (Cramer)
A Sieva lima bean plant with just the primary leaves expanded to 1.91 cm is dipped for three seconds with agitation in the "A" solution of 1000 ppm and set in the hood to dry. Following this, one leaf is placed in a 9 cm petri dish which has a moist filter paper in the bottom and 10 third-instar armyworm larvae about 1 cm long. This dish is covered and held at 80° F., and 50% r.h. After two days, mortality counts and estimates of the amount of feeding are made. Compounds showing partial kill and/or inhibition of feeding are held for an extra day for further observations.
All compounds showing activity as defined above are retested, using the second leaf on the bean plant, after an interval of seven days from original treatment, as an assay of residual activity.

Structure (SMILES) | Mortality Rating Tobacco Budworm 3rd Instar ([1]; 100 ppm) | Mortality Rating Tobacco Budworm 3rd Instar ([1]; 1000 ppm) | Mortality Rating Tobacco Budworm 1st Instar ([2]; 300 ppm) | Mortality Rating Southern Armyworm (Southern Armyworm; 10 ppm) | Mortality Rating Southern Armyworm (Southern Armyworm; 100 ppm) | Mortality Rating Southern Armyworm (Southern Armyworm; 1000 ppm) | Mortality Rating Tobacco Budworm 1st Instar ([2]; 100 ppm) | Mortality Rating Tobacco Budworm 3rd Instar ([1]; 10 ppm) | reduced feeding (R) Tobacco Budworm 3rd Instar ([1]; 100 ppm) | reduced feeding (R) Tobacco Budworm 3rd Instar ([1]; 1000 ppm) | Mortality Rating Tobacco Budworm 1st Instar ([2]; 10 ppm) | reduced feeding (R) Tobacco Budworm 1st Instar ([2]; 100 ppm) | reduced feeding (R) Tobacco Budworm 3rd Instar ([1]; 10 ppm)
CN(C)C(=O)N(N=Cc1ccc(Br)cc1)C(=N)NN=Cc1ccc(Br)cc1 [Br / Br / CH3 / CH3] | 0 (No effect) | 2 (26-35%) | 0 (No effect) | 0 (No effect) | 9 (100%) | 9 (100%) |  |  |  |  |  |  | 
N=C(NN=Cc1ccc(Br)cc1)NN=Cc1ccc(Br)cc1 [Br / HNO3] |  |  | 0 (No effect) |  | 5 (56-65%) | 9 (100%) |  |  |  |  |  |  | 
N=C(NN=Cc1ccc(C(F)(F)F)cc1)NN=Cc1ccc(C(F)(F)F)cc1 [CF3 / B, 1,3-bis{[p-(trifluoromethyl)benzylidene]amino}guanidine] | 0 (No effect) | 8 (86-99%) | 6 (66-75%) | 0 (No effect) | 9 (100%) | 9 (100%) | 0 (No effect) |  |  |  |  |  | 
N=C(NN=Cc1ccc(Br)cc1)NN=Cc1ccc(C(F)(F)F)cc1 [CF3 / Br / HCl] | 0 (No effect) | 0 (No effect) | 9 (100%) |  |  | 9 (100%) | 0 (No effect) | 0 (No effect) | R | R | 0 (No effect) | R | 
N=C(NN=Cc1ccc(OC(F)(F)F)cc1)NN=Cc1ccc(OC(F)(F)F)cc1 [CF3 O / HCl] |  |  | 9 (100%) | 0 (No effect) | 9 (100%) | 9 (100%) |  |  |  |  |  |  | 
CN(C)C(=O)N(N=Cc1ccc(SC(F)(F)C(F)F)cc1)C(=N)NN=Cc1ccc(SC(F)(F)C(F)F)cc1 [HCF2 CF2 S / HCF2 CF2 S / CH3 / CH3] | 6 (66-75%) | 6 (66-75%) |  | 3 (36-45%) | 9 (100%) | 9 (100%) |  | 0 (No effect) |  |  |  |  | 
CCOC(=O)N(N=Cc1ccc(OC(F)F)cc1)C(=N)NN=Cc1ccc(OC(F)F)cc1 [HCF2 O / HCF2 O / C2 H5] |  | 2 (26-35%) |  | 0 (No effect) | 9 (100%) | 9 (100%) |  |  |  |  |  |  | 
N=C(NN=Cc1ccc(SC(F)F)cc1)NN=Cc1ccc(SC(F)F)cc1 [HCF2 S / B] | 0 (No effect) | 0 (No effect) |  |  | 9 (100%) | 8 (86-99%) |  | 0 (No effect) | R | R |  |  | 
CCCOC(=O)N(N=Cc1ccc(SC(F)F)cc1)C(=N)NN=Cc1ccc(OC(F)F)cc1 [HCF2 S / HCF2 O / -n-C3 H7] |  | 0 (No effect) |  |  | 0 (No effect) | 9 (100%) |  |  |  |  |  |  | 
CN(C)C(=O)N(N=Cc1ccc(SC(F)F)cc1)C(=N)NN=Cc1ccc(SC(F)F)cc1 [HCF2 S / HCF2 S / CH3 / CH3] |  | 0 (No effect) |  | 0 (No effect) | 9 (100%) | 9 (100%) |  |  |  |  |  |  | 
N=C(NN=Cc1ccc(SC(F)F)cc1)N(N=Cc1ccc(SC(F)F)cc1)C(=O)OCCCl [HCF2 S / HCF2 S / ClCH2 CH2] |  | 0 (No effect) |  |  | 0 (No effect) | 9 (100%) |  |  |  | R |  |  | 
CCOC(=O)N(N=Cc1ccc(SC(F)F)cc1)C(=N)NN=Cc1ccc(SC(F)F)cc1 [HCF2 S / HCF2 s / C2 H5] |  | 0 (No effect) |  |  | 0 (No effect) | 9 (100%) |  |  |  | R |  |  | 
N=C(NN=Cc1ccc(SC(F)F)cc1)NN=Cc1ccc(SC(F)F)cc1 [HCF2 S / S] |  | 0 (No effect) |  |  | 9 (100%) | 9 (100%) |  |  |  | R |  |  | 
N=C(NN=Cc1ccc(OC(F)(F)C(F)Cl)cc1)NN=Cc1ccc(OC(F)(F)C(F)Cl)cc1 (stereo not drawn) [drawing 43 / B] | 0 (No effect) | 9 (100%) |  |  | 9 (100%) | 9 (100%) |  | 0 (No effect) |  |  |  |  | 
N=C(NN=Cc1ccc(OC(F)(F)C(F)Cl)cc1)NN=Cc1ccc(OC(F)(F)C(F)Cl)cc1 (stereo not drawn) [drawing 44 / S] | 0 (No effect) | 9 (100%) |  | 6 (66-75%) | 9 (100%) | 9 (100%) |  | 0 (No effect) | R | R |  |  | R
CC1(C)Oc2ccc(C=NNC(=N)NN=Cc3ccc4c(c3)OC(C)(C)O4)cc2O1 [drawing 45 / S] | 0 (No effect) | 0 (No effect) |  | 6 (66-75%) |  | 9 (100%) |  |  |  | R |  |  | 
N=C(NN=Cc1ccc2c(c1)OC(F)(F)O2)NN=Cc1ccc2c(c1)OC(F)(F)O2 [drawing 46 / S] | 0 (No effect) | 0 (No effect) |  | 4 (46-55%) | 0 (No effect) | 9 (100%) |  |  | R | R |  |  | 
N=C(NN=Cc1ccc2c(c1)OC(F)C(F)(F)O2)NN=Cc1ccc2c(c1)OC(F)C(F)(F)O2 (stereo not drawn) [drawing 47 / B] | 0 (No effect) | 0 (No effect) |  | 0 (No effect) |  | 9 (100%) |  |  | R | R |  |  | 
N=C(NN=Cc1ccc2c(c1)OC(F)C(F)(F)O2)NN=Cc1ccc2c(c1)OC(F)C(F)(F)O2 (stereo not drawn) [drawing 48 / S] |  | 0 (No effect) |  |  | 0 (No effect) | 9 (100%) |  |  |  | R |  |  | 
CC(C)OC(=O)N(N=Cc1ccc(OC(F)(F)C(F)Cl)cc1)C(=N)NN=Cc1ccc(OC(F)(F)C(F)Cl)cc1 (stereo not drawn) [drawing 50 / drawing 51 / -i-C3 H7] |  | 0 (No effect) |  | 0 (No effect) | 9 (100%) | 9 (100%) |  |  |  | R |  |  | 
CC(C)OC(=O)N(N=Cc1ccc2c(c1)OC(F)C(F)(F)O2)C(=N)NN=Cc1ccc2c(c1)OC(F)C(F)(F)O2 (stereo not drawn) [drawing 52 / drawing 53 / -i-C3 H7] | 0 (No effect) | 0 (No effect) |  | 0 (No effect) | 5 (56-65%) | 8 (86-99%) |  |  |  | R |  |  | 
N=C(NN=Cc1ccc(OC(F)(F)C(F)Cl)cc1)N(N=Cc1ccc(OC(F)(F)C(F)Cl)cc1)C(=O)OCCCl (stereo not drawn) [drawing 57 / drawing 58 / ClCH2 CH2] |  | 0 (No effect) |  |  | 9 (100%) | 9 (100%) |  |  |  | R |  |  | 
